For test [1], the system named is lymphoma cell SU-DHL-6. Nature of the test: CellTiter-Glo inhibition of proliferation of lymphoma cell SU-DHL-6. The note with it: Homo sapiens, 72 hours. The format is cell-based. The method, then: CellTiter-Glo testing method was used to test the inhibition of the proliferation of lymphoma cell SU-DHL-6 (ATCC, Catalog number: CRL-2959) by the compounds. The cell culture solution used in the test was RPMI1640 (Invitrogen, Catalog number: 11875-093). 10% fetal calf serum (Invitrogen, Catalog number: 10099-141) was used in the test.
100 μL of culture solution containing 15000 cells was distributed to wells of a 96-well plate (Corning #3903). The plate was placed in a carbon dioxide incubator overnight. 0.5 μL of the compound (which was prepared using DMSO to have eight continuous concentration gradients) to be tested was added to each of the wells the next day. Each concentration was set with two replicates, and a well without cell (blank control) and a DMSO-well (solvent control). After dosing, the cells were cultured at 37° C. in 5% CO2 atmosphere for 72 hours. At last, 100 μL of CellTiter-Glo agent (Promega, Catalog number: G7571) was added to each of the wells. Luminescence signal was detected using Flex Station3 (Molecular Devices), and the IC50 value of each of the compounds inhibiting cell proliferation was calculated using XLfit software (Table 1).
(In general: In ATP-based viability assays light output follows the ATP content of the culture.)

Test [2] concerns the target T1, PI3Kδ kinase (p110δ/p85α) (Homo sapiens, UniProt O00329).
T1 construct: purchased Millipore 14-604-K
Description: Activity of PI3Kδ kinase by ADP-Glo method. The note with it: 17 nM kinase, 50 μM PIP2, 25 μM ATP. The format is biochemical. The method, then:
Activity of PI3Kδ kinase was tested by ADP-Glo method. ADP-Glo was obtained from Promega (#V9101). p110δ/p85α was obtained from Millipore (#14-604-K). The IC50 of each of the compounds was evaluated by testing the compound at 10 concentrations. The starting concentration was 1 μM, and then a 3-fold serial dilution was performed. Buffer solutions for the testing were 50 mM HEPES pH 7.5, 3 mM MgCl2, 1 mM EGTA, 100 mM NaCl, 0.03% CHAPS, and 2 mM DTT. The final concentration of the PI3Kδ kinase was 17 nM; the final concentration of PIP2 was 50 μM; and the final concentration of ATP was 25 μM.
1. Preparation of 10 μL of kinase reaction solution: 2.5 μL of test compound solution, 2.5 μL of kinase solution, and 5 μL of substrate solution were added to each well of a 384-well plate (Corning #4512).
2. The 384-well plate was covered and incubated at room temperature for 60 minutes.
3. 5 μL of reaction solution was transferred from each well to the wells of a new 384-well plate.
4. 5 μL of ADP-Glo reagent was added to the wells of the 384-well plate to terminate the reaction.
5. The 384-well plate was shaken gently on a shaking machine. 6. 10 μL of kinase detection reagent was added to each of the wells, followed by shaking for 1 minute and allowing to standing at room temperature for 30 minutes.
8. The luminescence values of the sample were read using Synegy. 9. Data were processed using Excel and was curve-fitted using XLFit software to obtain the IC50 value of each of the compounds (Table 1).
Background: ADP-Glo turns the ADP formed in a reaction into a luminescent signal.

T1 sequence (O00329 whole entry): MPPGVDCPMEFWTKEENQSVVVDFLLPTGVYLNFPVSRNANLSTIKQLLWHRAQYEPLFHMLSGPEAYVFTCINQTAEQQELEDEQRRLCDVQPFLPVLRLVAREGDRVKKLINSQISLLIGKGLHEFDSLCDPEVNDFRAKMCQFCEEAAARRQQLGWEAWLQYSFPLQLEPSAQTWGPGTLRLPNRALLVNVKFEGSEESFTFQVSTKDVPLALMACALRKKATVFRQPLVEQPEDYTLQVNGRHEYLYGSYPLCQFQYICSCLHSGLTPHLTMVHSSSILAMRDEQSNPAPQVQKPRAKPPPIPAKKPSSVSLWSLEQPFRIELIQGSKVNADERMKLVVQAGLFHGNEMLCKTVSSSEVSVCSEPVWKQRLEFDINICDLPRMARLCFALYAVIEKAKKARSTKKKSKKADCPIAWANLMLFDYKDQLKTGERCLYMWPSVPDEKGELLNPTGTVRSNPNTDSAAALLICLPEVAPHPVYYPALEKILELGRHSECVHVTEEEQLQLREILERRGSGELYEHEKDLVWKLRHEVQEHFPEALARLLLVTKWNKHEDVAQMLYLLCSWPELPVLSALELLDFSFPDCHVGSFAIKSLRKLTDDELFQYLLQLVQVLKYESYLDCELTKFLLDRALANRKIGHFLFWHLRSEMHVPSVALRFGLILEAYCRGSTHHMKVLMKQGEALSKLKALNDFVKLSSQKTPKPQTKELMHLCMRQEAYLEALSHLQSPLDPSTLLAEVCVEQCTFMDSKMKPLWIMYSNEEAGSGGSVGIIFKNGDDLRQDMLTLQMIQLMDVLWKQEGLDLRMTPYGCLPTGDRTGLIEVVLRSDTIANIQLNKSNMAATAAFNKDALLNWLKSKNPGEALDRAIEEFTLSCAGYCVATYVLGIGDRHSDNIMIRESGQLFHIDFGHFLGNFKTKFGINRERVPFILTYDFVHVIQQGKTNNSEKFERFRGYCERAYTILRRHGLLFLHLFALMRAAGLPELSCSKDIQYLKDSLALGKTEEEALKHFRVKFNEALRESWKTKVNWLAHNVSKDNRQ
T1 sequence (P27986 whole entry partner): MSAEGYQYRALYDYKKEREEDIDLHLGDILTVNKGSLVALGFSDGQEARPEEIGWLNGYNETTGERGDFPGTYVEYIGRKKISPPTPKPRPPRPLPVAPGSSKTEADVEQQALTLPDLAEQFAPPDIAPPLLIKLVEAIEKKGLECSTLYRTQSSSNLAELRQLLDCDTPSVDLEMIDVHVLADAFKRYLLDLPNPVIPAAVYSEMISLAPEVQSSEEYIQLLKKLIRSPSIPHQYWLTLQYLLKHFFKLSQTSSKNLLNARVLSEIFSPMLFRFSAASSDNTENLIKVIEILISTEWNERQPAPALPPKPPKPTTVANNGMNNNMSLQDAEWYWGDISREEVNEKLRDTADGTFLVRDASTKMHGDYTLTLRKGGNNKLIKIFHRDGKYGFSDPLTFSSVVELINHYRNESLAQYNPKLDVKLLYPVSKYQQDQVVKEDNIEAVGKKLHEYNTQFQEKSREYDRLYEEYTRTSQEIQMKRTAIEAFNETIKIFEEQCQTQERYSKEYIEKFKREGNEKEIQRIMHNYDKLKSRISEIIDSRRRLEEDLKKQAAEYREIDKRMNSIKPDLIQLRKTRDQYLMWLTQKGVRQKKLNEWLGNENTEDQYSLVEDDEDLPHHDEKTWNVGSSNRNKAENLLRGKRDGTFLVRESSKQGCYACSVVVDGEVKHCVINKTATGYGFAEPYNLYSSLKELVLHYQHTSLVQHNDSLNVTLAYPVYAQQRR

What is called IC50 is the concentration that inhibits the measured activity by half. The low end stands for greater potency in that assay, the high end for weaker potency in that assay. Consider `C[C@H](Nc1ncnc(N)c1C#N)c1cn2ncc(Cl)c2nc1-c1ccccc1` [Example 1, (S)-4-amino-6-(1-(3-chloro-5-phenylpyrazolo[1,5-a]pyrimidin-6-yl)ethylamino) pyrimidin-5-carbonitrile], for which the IC50 in test [1] is 20 to 100 nM; in test [2] it was under 20 nM.

Turning to `C[C@H](Nc1nc(N)nc(N)c1C#N)c1cn2ncc(Cl)c2nc1-c1ccccc1` [Example 2, (S)-2,4-diamino-6-(1-(3-chloro-5-phenylpyrazolo[1,5-a]pyrimidin-6-yl)ethylamino)pyrimidin-5-carbonitrile], the IC50 in test [1] and in test [2] was under 20 nM throughout.

Turning to `C[C@H](Nc1nc(N)nc(N)c1C#N)c1cn2ncc(Cl)c2nc1-c1cccc(F)c1` [Example 3, (S)-2,4-diamino-6-(1-(3-chloro-5-(3-fluorophenyl)pyrazolo[1,5-a]pyrimidin-6-yl)ethylamino)pyrimidin-5-carbonitrile], the IC50 in test [1] and in test [2] was under 20 nM each time.

With `C[C@H](Nc1ncnc(N)c1C#N)c1cn2ncc(Cl)c2nc1-c1cccc(F)c1` [Example 4, (S)-4-amino-6-(1-(3-chloro-5-(3-fluorophenyl)pyrazolo[1,5-a]pyrimidin-6-yl)ethylamino)pyrimidin-5-carbonitrile], the concentration for half-maximal inhibition (IC50) is 20 to 100 nM in test [1] and under 20 nM in test [2].

As for `Cc1nc(N)nc(N[C@@H](C)c2cn3ncc(Cl)c3nc2-c2ccccc2)c1C#N` [Example 5, (S)-2-amino-4-((1-(3-chloro-5-phenylpyrazolo[1,5-a]pyrimidin-6-yl)ethyl)amino)-6-methylpyrimidin-5-carbonitrile], the IC50 was 20 to 100 nM in test [1] and under 20 nM in test [2].

The values are drawn from US10702531B2, “Pyrazolopyrimidine compound as PI3K inhibitor and use thereof” (Shenzhen Bo Li Jian Medicine Co., Ltd., priority 2016, dated 2020).
